A short description of data set [1]: Pharmacokinetic test in beagle dogs. It is filed as in vivo. To be noted: dog, blood. How it is done: A clear solution of crystalline form II of the compound of Formula (1) was prepared in 10% DMSO, 60% PEG 400, and 30% water for injection and administered intravenously to beagle dogs. An aqueous suspension of crystalline form II of the compound of Formula (1) in 0.5% sodium carboxymethylcellulose (CMC·Na) was prepared and administered orally to beagle dogs to investigate its pharmacokinetic characteristics.

A short description of data set [2]: Pharmacokinetic test in SD rats. It is filed as in vivo. As to conditions: rat, blood. How it is done:
A clear solution of crystalline form II of the compound of Formula (1) was prepared in 10% DMSO, 60% PEG 400, and 30% water for injection and administered intravenously to SD rats. An aqueous suspension of crystalline form II of the compound of Formula (1) in 0.5% sodium carboxymethylcellulose (CMC·Na) was prepared and administered orally to SD rats to investigate its pharmacokinetic characteristics.

The nature of data set [3]: Crystalline form transformation test (heating). It is filed as physicochemical. As to conditions: slowly heated to 200° C., then cooled to room temperature. How it is done:
(§1) The solid samples obtained in the examples were analyzed for crystalline form using a PANalytical EMPYREAN equipped with a PIXceI^1D detector. The instrument parameters are as follows: scanning range: 3° (2θ) to 40° (2θ); step size: 0.013° (2θ); tube voltage and current are 45 KV and 40 mA, respectively.
Crystalline form IV was slowly heated to 200° C. and then cooled to room temperature. Samples before and after heating were collected for XRPD testing.

A short description of a further data set: Mechanical grinding test. It is filed as physicochemical. As to conditions: 0.5 g ground in a mortar for about 5 minutes. How it is done: as §1
0.5 g of crystalline form II was placed in a mortar and ground for about 5 minutes, then the solid was collected for XRPD testing.

The next data set can be described thus: High temperature test. As to conditions: 60° C. It is filed as physicochemical. As for the experimental part: Crystalline form II of the compound of Formula (1) was placed at a high temperature of 60° C. for 30 days. Samples were taken at 0, 5, 10, and 30 days, respectively, to observe changes in sample characteristics, measure specific rotation with a polarimeter, test for drying loss, measure the total impurity content by HPLC, and measure the XRPD patterns of the samples.

A further data set can be described thus: Light exposure test. In kind it is physicochemical. As for the experimental part: Crystalline form II of the compound of Formula (1) was placed under conditions of light intensity not less than 1.2×10^6 Lux·hr, with near-ultraviolet energy not less than 200 w·hr/m^2, at 25° C., RH 25% for 30 days. Samples were taken at 0, 5, 10, and 30 days, respectively, to observe changes in sample characteristics, test for drying loss, measure the total impurity content by HPLC, and measure the XRPD patterns of the samples.

The nature of another data set: Solid stability test. In kind it is physicochemical. As to conditions: for Purity - Day 7: 7 days. How it is done:
as §1
The HPLC measurements were performed using an Agilent HPLC 1260 series instrument.
Crystalline form II was stored separately at a sealed condition at 60° C. and at 40° C./75% RH for 7 days. The purity of the samples was determined by HPLC before and after storage, and the XRPD patterns were measured.

A short description of a further data set: High humidity test. In kind it is physicochemical. How it is done:
Crystalline form II of the compound of Formula (1) was placed at 25° C. and 92.5% high humidity for 30 days. Samples were taken at 0, 5, 10, and 30 days, respectively, to observe changes in sample characteristics, test for drying loss, measure the total impurity content by HPLC, and measure the XRPD patterns of the samples.

Bounds are passed on as bounds.

`O=C(NC1(C23CC(C(=O)O)(C2)C3)CC1)c1cccc2ccn(Cc3cc4ccccc4o3)c12` [compound of Formula (1), 3-(1-(1-(benzofuran-2-ylmethyl)-1H-indole-7-carboxamido)cyclopropyl)bicyclo[1.1.1]pentane-1-carboxylic acid]: the clearance was determined as 6.64 mL/min/kg in data set [1] (single intravenous 5 mg/kg, read-out: clearance (CL)) and 3.59 mL/min/kg in data set [2] (single intravenous 15 mg/kg, read-out: clearance (CL)). The Vd in data set [1] (single intravenous 5 mg/kg, read-out: steady-state apparent volume of distribution (Vss)) stood at 1.5 L/kg; in data set [2] (single intravenous 15 mg/kg, read-out: steady-state apparent volume of distribution (Vss)) it was 1.18 L/kg. Besides, the AUC(0-t) in data set [1] (single intravenous 5 mg/kg, solution of crystalline form II in 10% DMSO, 60% PEG 400, 30% water, read-out: drug exposure (AUC0-t)) came out at 12600 ng·h/mL; in data set [1] (single oral 45 mg/kg, suspension of crystalline form II in 0.5% CMC·Na, read-out: exposure (AUC0-t)) it was 79600 ng·h/mL; in data set [2] (single intravenous 15 mg/kg, solution of crystalline form II in 10% DMSO, 60% PEG 400, 30% water, read-out: drug exposure (AUC0-t)), 78800 ng·h/mL; in data set [2] (single oral 40 mg/kg, suspension of crystalline form II in 0.5% CMC·Na, read-out: exposure (AUC0-t)), 153000 ng·h/mL. The Cmax is 32900 ng/mL in data set [1] (single oral 45 mg/kg, suspension of crystalline form II in 0.5% CMC·Na, read-out: maximum blood drug concentration (Cmax)) and 27700 ng/mL in data set [2] (single oral 40 mg/kg, suspension of crystalline form II in 0.5% CMC·Na, read-out: maximum blood drug concentration (Cmax)).
`O=C(NC1(C23CC(C(=O)O)(C2)C3)CC1)c1cccc2ccn(Cc3cc4ccccc4o3)c12` [Crystalline form IV, 3-(1-(1-(benzofuran-2-ylmethyl)-1H-indole-7-carboxamido)cyclopropyl)bicyclo[1.1.1]pentane-1-carboxylic acid]: the “crystalline form after heating (XRPD)” value in data set [3] was “transformed into crystalline form II”.
With `O=C(NC1(C23CC(C(=O)O)(C2)C3)CC1)c1cccc2ccn(Cc3cc4ccccc4o3)c12` [Crystalline form II, 3-(1-(1-(benzofuran-2-ylmethyl)-1H-indole-7-carboxamido)cyclopropyl)bicyclo[1.1.1]pentane-1-carboxylic acid], in the data set “Mechanical grinding test”, the “crystalline form after grinding (XRPD)” value is listed as “remained unchanged”. For the same molecule, the “stability under high-temperature conditions” value in the data set “High temperature test” is reported as “stable”. In addition, the “differences in appearance, moisture, content and crystalline form compared to day 0” value in the data set “High temperature test” (30 days) is “no significant differences”; in “High humidity test” (25° C., 92.5% RH, 30 days), “no significant differences”. Besides, the new impurities formed in “High temperature test” (30 days, HPLC) was no more than 0.05%; in the data set “Light exposure test” (light exposure, 30 days, HPLC), no more than 0.05%; in the data set “High humidity test” (25° C., 92.5% RH, 30 days, HPLC) it was no more than 0.05%. Moreover, the “crystalline form (XRPD)” value in “Light exposure test” (light exposure, 30 days) is listed as “did not change”. Besides, the “changes in moisture and content compared to day 0” value in “Light exposure test” (light not less than 1.2×10^6 Lux·hr, near-UV not less than 200 w·hr/m^2, 25° C., RH 25%, 30 days) is given as “no significant changes”. The “stability under light exposure conditions” value in the data set “Light exposure test” (total illumination not less than 1.2×10^6 Lux·hr, near-UV not less than 200 w·hr/m^2) is “stable”. For the same molecule, the “Purity - Day 7” value in “Solid stability test” (HPLC, 40° C./75% RH) came out at 99.4 Area %; in “Solid stability test” (HPLC, sealed condition at 60° C.), 99.6 Area %. Moreover, the “Purity at the beginning” value in the data set “Solid stability test” (HPLC, before storage) amounted to 99.4 Area %. In addition, the “crystalline form after storage (XRPD)” value in the data set “Solid stability test” (sealed at 60° C. and at 40° C./75% RH for 7 days) was “remained unchanged”. Also, the water absorption in the data set “High humidity test” (25° C., 92.5% RH, 30 days) is reported as 0.03%. Also, the “stability under high humidity conditions” value in “High humidity test” (RH 92.5%) is “stable”.

The term clearance denotes the volume of plasma or blood freed of the substance per unit of time.

The values above are taken from US20240294511A1, “SOLID FORM OF INDOLE COMPOUND, PREPARATION METHOD THEREFOR AND USE THEREOF” (KEYTHERA (SUZHOU) BIO-PHARMACEUTICALS CO., LIMITED, priority 2021, published 2024).
